From patent publication US9144569B2, “Methods of administering an aromatase inhibitor, prostaglandin and GnRH for regulating ovulation in cattle” (UNIVERSITY OF SASKATCHEWAN, priority 2010, dated 2015) come the findings set out here.

What all share (format): in vivo, cattle
One assay deals with heifers. Put plainly: Example IV: intravaginal device containing 1 g letrozole in heifers, ovulation and ovarian structures. On the procedure:
To test the hypothesis that letrozole treatment during the preovulatory stage, initiated prior to onset of follicular selection and prolonged for a 7-day period will be able to induce the development of more than one follicle to a preovulatory size and to delay the occurrence of ovulation. To develop a practical route of administration of letrozole in cattle.
Five to eight days after PGF-induced ovulation, FA was performed followed by a double dose of PGF 60 and 72 hr later. Heifers were randomly divided into two groups and received from Day 1 (Day 0=wave emergence) until Day 7 or until ovulation is detected: • intravaginal device containing 1 g of letrozole (n=15) • Intravaginal blank device (letrozole free, n=15)
Transrectal ultrasound examination and blood sample collection were performed daily from day of ablation until Day 12 post-ovulation. blood samples were collected frequently at the time of catheter placement, at 0, 10, 20, 30 min, 1, 1.5, 2, 3, 4, 6, 8, 12 and 24 hours post-treatment

The next assay concerns plasma LH. Put plainly: Example III: plasma LH after letrozole IV or IM. The conditions noted are these: 1 mg/kg IV or IM vs placebo. On the procedure: (§1) Ovarian cyclicity in heifers was synchronized using transvaginal ultrasound-guided follicular ablation followed by a double dose of PGF 4 days after ablation. The ovaries were examined daily by transrectal ultrasonography to detect ovulation. Three days after ovulation, heifers were assigned randomly to four treatment groups and given letrozole at a dose of 1 mg/kg intravenously (in benzyl alcohol, n=10) or intramuscularly (in benzyl alcohol plus canola oil 1:1 v/v, n=10), or given a placebo intravenously (benzyl alcohol, n=5) or intramuscularly (benzyl alcohol plus canola oil 1:1 v/v, n=5). Ovarian structures were monitored by ultrasonography and blood samples were collected by jugular venipuncture twice daily from pre-treatment to post-treatment ovulations. Comparisons among groups were made by one-way ANOVA for single-point measurements and by ANOVA for repeated measures for time-series data.
(§2) Blood samples collected daily from treatment to post-treatment ovulation.
(§3) Endpoints are: Follicular diameter profiles; CL diameter profile; Circulating progesterone concentration; Circulating FSH and LH profiles; Letrozole profile and bioavailability; Circulating estradiol concentration Follicular fluid estradiol concentration).

The subject of a further assay is plasma progesterone. Nature of the assay: Example III: plasma progesterone after letrozole IM. The conditions noted are these: 1 mg/kg IM; P<0.06. On the procedure: as §1, §2, §3
For the next assay, the system named is plasma FSH. Put plainly: Example II: plasma FSH during 3-day letrozole regimen. The conditions noted are these: 3-day regimen. On the procedure: Four days after follicular ablation, heifers were given 500 μg of cloprostenol (PGF, Estrumate, Schering-Plough Animal Health, Pointe-Claire, QC, Canada) intramuscularly (im) to induce regression of the CL and to synchronize ovulation. The experiment was performed in two replicates (n=20-27 per replicate) and each heifer was used only once. In replicate 1, heifers were assigned randomly at the time of ovulation (Day 0) to the following groups and given a 3-day regimen of letrozole from Days 1 to 3 (n=5), Days 3 to 5 (n=5), Days 5 to 7 (n=5), or no treatment (control group, n=5). In replicate 2, heifers were similarly assigned to groups and given letrozole from Days 1 to 3, (n=5), Days 3 to 5 (n=4), or Days 5 to 7 (n=4), but untreated control heifers were arranged in three sub-groups to serve as contemporaneous controls for each letrozole-group during intensive blood sampling periods (i.e., control Days 1 to 3, n=4; control Days 3 to 5, n=4; and control Days 5 to 7, n=5). For practical purposes, the total dose of letrozole (250 μg/kg) was calculated on the basis of an average weight of 350 kg for all heifers and administered intravenously in daily divided doses over 3 days (85 μg/kg per day). […]
Plasma FSH concentrations were determined in duplicate using a double-antibody radioimmunoassay using NIDDK-anti-oFSH-1 primary antibody and expressed as USDA bovine FSH-I1 units. […]

`N#Cc1ccc(C(c2ccc(C#N)cc2)n2cncn2)cc1` [Letrozole, letrozole]: the “size of the ovulated dominant follicle (DF)” value in the assay on heifers is “larger DF”. In the assay with heifers (Day 1 to Day 7 of pre-ovulatory wave), this compound had a delay of ovulation of 24 h. For the same compound, the “plasma LH concentrations among groups” value in the assay with plasma LH is on record as “did not differ”. In the assay with plasma progesterone, the “plasma progesterone concentrations vs IM controls” value was “tended to be higher”. The “plasma FSH levels compared with respective controls” value with plasma FSH is “No differences”.
